# Results taken from patent US9107852B2, “Uses of agonists of delta opioid receptor in cosmetic and dermocosmetic field” (Induchem Holding AG, priority 2012, dated 2015).
# Experiments:
# delta2 opioid receptor = biological target: T1, delta2 opioid receptor (Mus musculus, UniProt P32300); experiment: Agonist effect at the delta2 opioid receptor (DOP), cell impedance; assay type: cell-based; conditions: percent of control specific agonist response (DPDPE)
# T1 construct: host or cells: unnamed cells 'bearing the delta2 opioid receptor'
# T1 sequence (P32300 whole entry): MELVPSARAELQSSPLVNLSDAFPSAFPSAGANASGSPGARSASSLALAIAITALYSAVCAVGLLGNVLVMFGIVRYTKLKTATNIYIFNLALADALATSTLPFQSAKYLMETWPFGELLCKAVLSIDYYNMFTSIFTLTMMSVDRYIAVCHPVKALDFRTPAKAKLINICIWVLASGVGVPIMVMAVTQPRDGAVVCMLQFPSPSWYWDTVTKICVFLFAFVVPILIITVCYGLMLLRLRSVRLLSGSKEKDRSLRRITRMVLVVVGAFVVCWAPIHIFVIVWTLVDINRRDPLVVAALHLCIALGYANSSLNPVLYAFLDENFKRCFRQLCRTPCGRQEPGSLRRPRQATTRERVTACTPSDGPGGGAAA
# Description: Frozen spinach leaves were thawed and disrupted in fine particles a blender. This juice was further treated with ultrasounds to disrupt cells and proteins were recovered by acidic precipitation. These proteins were then digested by several enzymes, including pepsin and papain. The hydrolysate was purified (ultrafiltration), fractionated and stored before testing. Meanwhile, synthetic peptides were ordered from a manufacturer. The peptides and the hydrolysates were tested on cells bearing the delta2 opioid receptor and cell impedance was measured to evaluate the binding activity of the tested compounds (Law and Loh, 1993).
# The EC50 values (concentration producing a half-maximal specific response) and IC50 values (concentration causing a half-maximal inhibition of the control specific agonist response) were determined by non-linear regression analysis of the concentration-response curves generated with mean replicate values using Hill equation curve fitting (Y=D+[(A D)/(1+(C/C50)nH)], where Y=specific response, D=minimum specific response, A=maximum specific response, C=compound concentration, and C50=EC50 or IC50, and nH=slope factor).
# [1] = tested on: opioid receptor delta (DOR); experiment: Expression of DOR in epidermis, tissue microarray immunohistochemical labeling; assay type: cell-based, human; conditions: RHE treated with PMA at 2 μg, compared to non-treated RHE
# Description: The protein expression of the opioid receptor delta (DOR) was analyzed using a “tissue microarray” (TMA) composed of numerous skin-related cellular models in order to identify the best models for further studies.
# Formaldehyde-fixed tissues were dehydrated in multiple baths with increasing concentration of ethanol and then embedded in “Paraplast X-tra” paraffin. The transversal sections were carried out using a microtome (5 μm thickness) and kept at room temperature until staining.
# The sections were deparaffinized then the antigenic sites were retrieved using specific buffers (pH6 and pH9). The sections were then washed and incubated with hydrogen peroxide. After an additional washing step, the sections were incubated with the primary antibody (anti-DOR). […] After peroxidase-conjugated streptavidine and peroxidase substrate addition, nuclei were counter-stained with a solution of haematoxylin. The slices were washed in ultra-pure water and mounted in aqueous medium.
# Sections were observed using a NIKON E400 microscope. Images were captured with a NIKON DS-Ri1 and processed with NIS-Elements 3.10 software.
# [2] = tested on: opioid receptor delta (DOR); experiment: Scoring of DOR1 expression in RHE stimulated with cytokines; assay type: cell-based, human; conditions: JAK inhibitor I tested at 10 μM
# Description: In the present study, the effects of a peptide (YPLDLF, SEQ ID No 1) on the expression of opioid receptor delta (DOR) were researched on a reconstructed human epidermis (RHE) model under basal or stimulated conditions. More precisely, the RHE were stimulated by a mix of cytokines (IL-17+OSM+TNF-α) able to induce a strong inflammatory profile and a psoriatic phenotype in keratinocytes.
# Reconstructed human epidermis (RHE) of 11 days old was prepared according to a derived method described by Poumay et al. (2004). These RHE were cultivated at 37° C. and 5% of CO2 in a specific maintenance medium.
# The RHE treated under basal conditions were placed in assay medium containing or not (non-stimulated control) the peptide solutions and incubated for 54 hours. For inflammatory conditions, the RHE were placed in assay medium containing or not (stimulated control) the peptide solutions or the reference […] at 10 μM) and pre-incubated for 6 hours. The RHE were then stimulated with a mix of cytokines (IL-17+OSM+TNF-α at 3 ng/ml) and incubated for 48 hours. All experimental conditions were performed in n=3.
# At the end of incubation, the supernatants were collected and the RHE were washed in phosphate buffered saline solution (PBS) for immunohistofluorescence analysis. […]
compound,measurement,setting,value
"D-Penicillamine(2,5)-enkephalin [DPDPE, reference compound]",A (Hill curve fit parameter),delta2 opioid receptor,0.0
same,D (Hill curve fit parameter),delta2 opioid receptor,95.8
"CCCCCCCCCCCCCC(=O)O[C@@H]1[C@@H](C)[C@@]2(O)[C@@H](C=C(CO)C[C@]3(O)C(=O)C(C)=C[C@@H]23)[C@@H]2C(C)(C)[C@]12OC(C)=O [PMA, Phorbol myristate acetate]",expression of DOR,[1],DOR was decreased after Phorbol myristate
JAK inhibitor I [reference compound],inhibitory effect of the cytokine mix on OPRD1 expression,[2],reversed
